According to patent US8063048B2, “Acetylenyl-pyrazolo-pyrimidine derivatives” (Hoffmann-La Roche Inc., priority 2005, dated 2011):

Cc1cc(-c2cc(C(F)F)n3ncc(C#Cc4ccc(S(=O)(=O)N5CCN(C)CC5)s4)c3n2)ccc1Cl [Example 255, 5-(4-Chloro-3-methyl-phenyl)-7-difluoromethyl-3-[5-(4-methyl-piperazine-1-sulfonyl)-thiophen-2-ylethynyl]-pyrazolo[1,5-a]pyrimidine]
melting point: 191 °C

Cc1cc(-c2cc(C(F)F)n3ncc(C#Cc4ccc(S(=O)(=O)NCCN(C)C)s4)c3n2)ccc1Cl [Example 256, 5-[5-(4-Chloro-3-methyl-phenyl)-7-difluoromethyl-pyrazolo[1,5-a]pyrimidin-3-ylethynyl]-thiophene-2-sulfonic acid (2-dimethylamino-ethyl)-amide]
melting point: 149 °C

Cc1cc(-c2cc(C(F)(F)F)n3ncc(C#Cc4ccc(S(=O)(=O)NCCN(C)C)s4)c3n2)ccc1Cl [Example 257, 5-[5-(4-Chloro-3-methyl-phenyl)-7-trifluoromethyl-pyrazolo[1,5-a]pyrimidin-3-ylethynyl]-thiophene-2-sulfonic acid (2-dimethylamino-ethyl)-amide]
melting point: 179 °C

Cc1cc(-c2cc(C(F)(F)F)n3ncc(C#Cc4ccc(S(=O)(=O)N5CCN(C)CC5)s4)c3n2)ccc1Cl [Example 258, 5-(4-Chloro-3-methyl-phenyl)-3-[5-(4-methyl-piperazine-1-sulfonyl)-thiophen-2-ylethynyl]-7-trifluoromethyl-pyrazolo[1,5-a]pyrimidine]
melting point: 229 °C

Nc1ccc(C#Cc2cnn3c(C(F)(F)F)cc(-c4cccc(C(F)(F)F)c4)nc23)cn1 [Example 259, 5-[7-Trifluoromethyl-5-(3-trifluoromethyl-phenyl)-pyrazolo[1,5-a]pyrimidin-3-ylethynyl]-pyridin-2-ylamine]
melting point: 177 °C

O=S(=O)(c1ccc(C#Cc2cnn3c(C(F)(F)F)cc(-c4ccc(C(F)(F)F)cc4)nc23)s1)N1CCNCC1 [Example 260, 3-[5-(piperazine-1-sulfonyl)-thiophen-2-ylethynyl]-7-trifluoromethyl-5-(4-trifluoromethyl-phenyl)-pyrazolo[1,5-a]pyrimidine]
melting point: 223 °C

O=S(=O)(c1ccc(C#Cc2cnn3c(C(F)(F)F)cc(-c4cccc(C(F)(F)F)c4)nc23)s1)N1CCNCC1 [Example 261, 3-[5-(piperazine-1-sulfonyl)-thiophen-2-ylethynyl]-7-trifluoromethyl-5-(3-trifluoromethyl-phenyl)-pyrazolo[1,5-a]pyrimidine]
melting point: 160 °C

NCCNS(=O)(=O)c1ccc(C#Cc2cnn3c(C(F)(F)F)cc(-c4cccc(C(F)(F)F)c4)nc23)s1 [Example 262, 5-[7-Trifluoromethyl-5-(3-trifluoromethyl-phenyl)-pyrazolo[1,5-a]pyrimidin-3-ylethynyl]-thiophene-2-sulfonic acid (2-amino-ethyl)-amide]
melting point: 196 °C

NCCNS(=O)(=O)c1ccc(C#Cc2cnn3c(C(F)(F)F)cc(-c4ccc(C(F)(F)F)cc4)nc23)s1 [Example 263, 5-[7-Trifluoromethyl-5-(4-trifluoromethyl-phenyl)-pyrazolo[1,5-a]pyrimidin-3-ylethynyl]-thiophene-2-sulfonic acid (2-amino-ethyl)-amide]
melting point: 161 °C

O=S(=O)(c1ccc(C#Cc2cnn3c(C(F)F)cc(-c4cccc(C(F)(F)F)c4)nc23)s1)N(CCO)CCO [Example 264, 5-[7-Difluoromethyl-5-(3-trifluoromethyl-phenyl)-pyrazolo[1,5-a]pyrimidin-3-ylethynyl]-thiophene-2-sulfonic acid bis-(2-hydroxy-ethyl)-amide]
melting point: 174 °C

O=S(=O)(NC(CO)CO)c1ccc(C#Cc2cnn3c(C(F)F)cc(-c4cccc(C(F)(F)F)c4)nc23)s1 [Example 265, 5-[7-Difluoromethyl-5-(3-trifluoromethyl-phenyl)-pyrazolo[1,5-a]pyrimidin-3-ylethynyl]-thiophene-2-sulfonic acid (2-hydroxy-1-hydroxymethyl-ethyl)-amide]
melting point: 153 °C

O=S(=O)(c1ccc(C#Cc2cnn3c(C(F)(F)F)cc(-c4cccc(C(F)(F)F)c4)nc23)s1)N(CCO)CCO [Example 266, 5-[7-Trifluoromethyl-5-(3-trifluoromethyl-phenyl)-pyrazolo[1,5-a]pyrimidin-3-ylethynyl]-thiophene-2-sulfonic acid bis-(2-hydroxy-ethyl)-amide]
melting point: 129 °C

CN(C)CCNS(=O)(=O)c1ccc(C#Cc2ncn3c(C(F)(F)F)cc(-c4ccc(C(F)(F)F)cc4)nc23)s1 [Example 267, 5-[4-Trifluoromethyl-2-(4-trifluoromethyl-phenyl)-imidazo[1,5-a]pyrimidin-8-ylethynyl]-thiophene-2-sulfonic acid (2-dimethylamino-ethyl)-amide]
melting point: 178 °C

FC(F)(F)c1ccc(-c2cc(C(F)(F)F)n3cnc(C#Cc4cccnc4)c3n2)cc1 [Example 268, 8-Pyridin-3-ylethynyl-4-trifluoromethyl-2-(4-trifluoromethyl-phenyl)-imidazo[1,5-a]pyrimidine]
melting point: 199 °C

O=S(=O)(c1ccc(C#Cc2cnn3c(C(F)F)cc(-c4ccc(C(F)(F)F)cc4)nc23)s1)N(CCO)CCO [Example 269, 5-[7-Difluoromethyl-5-(4-trifluoromethyl-phenyl)-pyrazolo[1,5-a]pyrimidin-3-ylethynyl]-thiophene-2-sulfonic acid bis-(2-hydroxy-ethyl)-amide]
melting point: 122 °C

O=S(=O)(NC(CO)CO)c1ccc(C#Cc2cnn3c(C(F)F)cc(-c4ccc(C(F)(F)F)cc4)nc23)s1 [Example 270, 5-[7-Difluoromethyl-5-(4-trifluoromethyl-phenyl)-pyrazolo[1,5-a]pyrimidin-3-ylethynyl]-thiophene-2-sulfonic acid (2-hydroxy-1-hydroxymethyl-ethyl)-amide]
melting point: 152 °C

O=S(=O)(NC(CO)CO)c1ccc(C#Cc2cnn3c(C(F)(F)F)cc(-c4cccc(C(F)(F)F)c4)nc23)s1 [Example 271, 5-[7-Trifluoromethyl-5-(3-trifluoromethyl-phenyl)-pyrazolo[1,5-a]pyrimidin-3-ylethynyl]-thiophene-2-sulfonic acid (2-hydroxy-1-hydroxymethyl-ethyl)-amide]
melting point: 210 °C

O=S(=O)(NCc1ccncc1)c1ccc(C#Cc2cnn3c(C(F)(F)F)cc(-c4ccc(C(F)(F)F)cc4)nc23)s1 [Example 272, 5-[7-Trifluoromethyl-5-(4-trifluoromethyl-phenyl)-pyrazolo[1,5-a]pyrimidin-3-ylethynyl]-thiophene-2-sulfonic acid (pyridin-4-ylmethyl)-amide]
melting point: 170 °C

O=S(=O)(NCc1cccnc1)c1ccc(C#Cc2cnn3c(C(F)(F)F)cc(-c4ccc(C(F)(F)F)cc4)nc23)s1 [Example 273, 5-[7-Trifluoromethyl-5-(4-trifluoromethyl-phenyl)-pyrazolo[1,5-a]pyrimidin-3-ylethynyl]-thiophene-2-sulfonic acid (pyridin-3-ylmethyl)-amide]
melting point: 177 °C

NS(=O)(=O)c1cc(C#Cc2ncn3c(C(F)F)cc(-c4ccc(C(F)(F)F)cc4)nc23)c(F)cc1F [Example 274, 5-[4-Difluoromethyl-2-(4-trifluoromethyl-phenyl)-imidazo[1,5-a]pyrimidin-8-ylethynyl]-2,4-difluoro-benzenesulfonamide]
melting point: 149 °C

NS(=O)(=O)c1ccc(C#Cc2ncn3c(C(F)F)cc(-c4ccc(C(F)(F)F)cc4)nc23)s1 [Example 275, 5-[4-Difluoromethyl-2-(4-trifluoromethyl-phenyl)-imidazo[1,5-a]pyrimidin-8-ylethynyl]-thiophene-2-sulfonic acid amide]
melting point: 223 °C

NS(=O)(=O)c1ccc(C#Cc2ncn3c(C(F)F)cc(-c4ccc(C(F)(F)F)cc4)nc23)cc1 [Example 276, 4-[4-Difluoromethyl-2-(4-trifluoromethyl-phenyl)-imidazo[1,5-a]pyrimidin-8-ylethynyl]-benzenesulfonamide]
melting point: 282 °C

O=S(=O)(NCc1ccncc1)c1ccc(C#Cc2cnn3c(C(F)F)cc(-c4ccc(C(F)(F)F)cc4)nc23)s1 [Example 277, 5-[7-Difluoromethyl-5-(4-trifluoromethyl-phenyl)-pyrazolo[1,5-a]pyrimidin-3-ylethynyl]-thiophene-2-sulfonic acid (pyridin-4-ylmethyl)-amide]
melting point: 141 °C

O=S(=O)(NCc1cccnc1)c1ccc(C#Cc2cnn3c(C(F)F)cc(-c4ccc(C(F)(F)F)cc4)nc23)s1 [Example 278, 5-[7-Difluoromethyl-5-(4-trifluoromethyl-phenyl)-pyrazolo[1,5-a]pyrimidin-3-ylethynyl]-thiophene-2-sulfonic acid (pyridin-3-ylmethyl)-amide]
melting point: 152 °C

O=S(=O)(Nc1cccnc1)c1ccc(C#Cc2cnn3c(C(F)(F)F)cc(-c4ccc(C(F)(F)F)cc4)nc23)s1 [Example 279, 5-[7-Trifluoromethyl-5-(4-trifluoromethyl-phenyl)-pyrazolo[1,5-a]pyrimidin-3-ylethynyl]-thiophene-2-sulfonic acid pyridin-3-ylamide]
melting point: 248 °C

O=S(=O)(Nc1ccncc1)c1ccc(C#Cc2cnn3c(C(F)(F)F)cc(-c4ccc(C(F)(F)F)cc4)nc23)s1 [Example 280, 5-[7-Trifluoromethyl-5-(4-trifluoromethyl-phenyl)-pyrazolo[1,5-a]pyrimidin-3-ylethynyl]-thiophene-2-sulfonic acid pyridin-4-ylamide]
melting point: 209 °C

O=S(=O)(Nc1cccnc1)c1ccc(C#Cc2cnn3c(C(F)F)cc(-c4ccc(C(F)(F)F)cc4)nc23)s1 [Example 281, 5-[7-Difluoromethyl-5-(4-trifluoromethyl-phenyl)-pyrazolo[1,5-a]pyrimidin-3-ylethynyl]-thiophene-2-sulfonic acid pyridin-3-ylamide]
melting point: 226 °C

O=S(=O)(Nc1ccncc1)c1ccc(C#Cc2cnn3c(C(F)F)cc(-c4ccc(C(F)(F)F)cc4)nc23)s1 [Example 282, 5-[7-Difluoromethyl-5-(4-trifluoromethyl-phenyl)-pyrazolo[1,5-a]pyrimidin-3-ylethynyl]-thiophene-2-sulfonic acid pyridin-4-ylamide]
melting point: 215 °C
